# Laboratory results published in paper PMC12197210, “mPEG-PCL Nanoparticles to Improve Oral Bioavailability of Acalabrutinib: Effect of Polymer Lipophilicity and Hydrophilicity on Physicochemical Properties and In Vivo Performance in Rats” (Pharmaceutics, 2025).
# Like-named read-outs stand apart in the source and are kept apart here.
# Legend:
# [1] = In vitro dissolution/drug release, USP Type II apparatus, membrane-less method; assay type: physicochemical
# Protocol: A membrane-less method using a USP Type II dissolution apparatus (Manual operating model with 8 stations, Electrolab (India) Pvt. Ltd., Mumbai, India) was employed to evaluate the dissolution and drug release behavior of both bulk ACP and freeze-dried ACP-PLHNs (both types, equivalent to 100 mg free base) under physiological pH conditions. The gastrointestinal pH was simulated with three different buffer solutions: a 0.1 N HCl buffer (pH 1.2 ± 0.02, volume = 250 mL) representing the fasted stomach; an acetate buffer (pH 4.5 ± 0.02, volume = 250 mL) representing the fed stomach; and a phosphate buffer solution (PBS, pH 6.8 ± 0.02, volume = 900 mL) representing the intestinal environment. To simulate blood/plasma conditions, 500 mL of PBS (pH 7.2 ± 0.02) was used. To maintain sink conditions, 0.5% w/v sodium dodecyl sulfate (SDS) was added to media with pH ≥ 4.5, and the volume of medium was kept at 3× the volume required to maintain the saturation solubility of ACP. The formulations were dispersed in the dissolution media, which was continuously stirred at 75 rpm and maintained at 37 ± 2 °C. Samples (1000 μL) were withdrawn at specific time intervals and replaced with an equal volume of fresh media (pre-heated to 37 ± 2 °C). The samples were then centrifuged at 15,373× g for 5 min, and the supernatant was collected, diluted with the mobile phase (methanol and a 10 mM ammonium acetate buffer, pH 3.5, in a 52:48 v/v ratio), and analyzed using the HPLC-UV method outlined in Section 2.3.3. The dissolution data were fitted to different mathematical models to determine the drug release kinetics. The best-fitting model was identified based on the regression coefficient.
# [2] = cited from earlier work
# [3] = design: method as in earlier work; conditions: cited from earlier work
# [4] = tested on: P-glycoprotein (P-gp) efflux transporter; design: method as in earlier work; conditions: cited from earlier work
# CYP3A enzyme system = tested on: CYP3A enzyme system; design: method as in earlier work; conditions: cited from earlier work
compound,measurement,setting,value
"CC#CC(=O)N1CCC[C@H]1c1nc(-c2ccc(C(=O)Nc3ccccn3)cc2)c2c(N)nccn12 [ACP, Acalabrutinib]",time to complete dissolution,"[1]; pH 1.2, sink conditions",≤ 30 min
same,time to complete dissolution,"[1]; pH 4.5, sink conditions",≤ 30 min
same,time of complete (100%) release/dissolution,"[1]; pH 6.8, sink conditions",≤ 2 h
same,time of complete (100%) release/dissolution,"[1]; pH 7.2, sink conditions",≤ 4 h
same,aqueous solubility,[2]; pH 1,29200 µg/mL
same,aqueous solubility,[2]; pH 4.5,159 µg/mL
same,aqueous solubility,[2]; pH 6.8,52.3 µg/mL
same,solubility,[2]; pH values above 6,practically insoluble
same,oral bioavailability,[3],25 ± 11%
same,P-gp efflux transporter substrate status,[4],substrate
same,metabolism by CYP3A,CYP3A enzyme system,metabolized by the CYP3A enzyme system
